# Reference: patent US9650389B2, “8-oxoprotoberberine derivative or pharmaceutically acceptable salt thereof, preparation method therefor and pharmaceutical composition for preventing or treating diseases associated with activity of NFAT5, containing same as active ingredient” (Korea Research Institute of Chemical Technology, priority 2013, dated 2017)
# What was measured:
# [1] = tested on: iNOS; assay: Inhibition of LPS-induced iNOS induction in Raw264.7 cells (Griess reagent); format: cell-based; conditions: Mus musculus, Raw264.7, LPS 100 ng/ml, 24 hours, read-out: Inhibition rate of iNOS induction (%)
# Protocol: To investigate whether or not the derivative of the present invention could inhibit iNOS inducement, Raw264.7 cells (mouse macrophages) were distributed in a 384-well plate at the density of 3×10^4 cells/well. The cells were treated with LPS at the concentration of 100 ng/ml, followed by culture at 37° C. for 24 hours. The concentration of […] increased in the medium was measured by using Griess reagent. The inhibition rate was calculated by mathematical formula based on the detected signals. The results are shown in Table 2. % inhibition=(mean value of sample−mean value of negative control)/(mean value of positive control −mean value of negative control)×100 [Mathematical Formula 1]
# [2] = target: T1, NFAT5 (Mus musculus, UniProt Q9WV30); assay: NFAT5 reporter screening (GFP, HCS) in LPS-treated Raw264.7 cells; format: cell-based; conditions: for Inhibition rate of NFAT5 transcription (%): Raw264.7 reporter, LPS 1 μg/ml, 48 hours
# T1 construct: endogenous in cells; host or cells: RAW264.7
# Protocol: To investigate whether or not the derivative of the present invention could inhibit the transcriptional activity of NFAT5, NFAT5 reporter screening was performed. A plasmid vector was constructed by eliminating CMV promoter sequence from the backbone and inserting NFAT5 binding site sequence ([…]) instead. Raw264.7 cells transfected with the vector were cultured in 10% FBS-PRMI (supplemented with 500 μg/ml G418). The cells were distributed in a 96-well plate at the density of 3×10^3 cells/well, followed by further culture for one more day. The cells were treated with LPS at the concentration of 1 μg/ml for 48 hours. Then, the cells were fixed and the expression level of GFP was measured by HCS fluorescence image (Thermo, ArrayScan^VTI).
# [3] = tested on: NFATc; assay: NFAT (NFATc) transcriptional activity, THP1-XBlue-MD2-CD14 cells, SEAP; format: cell-based; conditions: LPS 1 μg/ml, 24 hours, FIG. 2B
# Protocol: To evaluate the transcriptional activity of NFAT, THP1-XBlue-MD2-CD14 cells were cultured in 10% FBS-RPMI (supplemented with 200 μg/ml of Zeocin and 250 μg/ml of G418). First, the cells were distributed in a 96-well plate at the density of 2×10^4 cells/well, followed by culture. 1 μg/ml of LPS and the compound of the invention were added thereto, followed by culture for 24 hours. 20 μl of the supernatant was added with 180 μl of secreted embryonic alkaline phosphatase (SEAP) detection medium, followed by culture for 2 hours. Then, OD655 was measured.
# [4] = tested on: NFAT5; assay: NFAT5 transcription and nuclear localization in LPS-stimulated RAW264.7 cells; format: cell-based, mouse; conditions: FIG. 4
# Protocol: Particularly, RAW264.7 cells were distributed in a 12-well plate at the density of 1.5×10^5 cells/well, followed by culture in 10% FBS-RPMI 1640 medium. The cells were stabilized for a day. The compound of Example 1 was treated thereto at the concentration of 1 μM for 1 hour, and then the cells were stimulated with LPS for 12 hours. 12 hours later, mRNA was extracted from the cells, and cDNA was synthesized therefrom. PCR (real-time PCR) was performed to measure the expression level of NFAT5 mRNA. The migration of the transcription factor NFAT5 from the cytoplasm to the nucleus was investigated. Particularly, RAW264.7 cells were distributed in a 6-well plate at the density of 6×10^5 cells/well, followed by culture in 10% FBS-RPMI 1640 medium. The cells were pre-treated with the compound 6 (1 μM) for 1 hour, and treated with LPS (1 μg/ml) for 24 hours. Cytoplasm and nucleus proteins were separated from the stimulated cells and the levels of NFAT5 and p65 protein (NF-kB subunit) were measured.
# [5] = Cytotoxicity test (WST-8), VERO; format: cell-based; conditions: African green monkey, VERO kidney cells
# Protocol: (§1) To investigate the cytotoxicity of the derivative of the present invention, 5 kinds of cell lines (VERO: African green monkey kidney cell line, HFL-1: human embryonic lung cell line, L929: NCTC clone 929, mouse fibroblast cell line, NIH 3T3: mouse embryonic fibroblast cell line, and CHO-K1: Chinese hamster ovary cell line) were distributed in a 96-well plate at the density of 1×10^4 cells/well, which were treated with the compound of the present invention for 24 hours. The water-soluble tetrazolium salt WST-8 was added thereto. The orange colored formazan dye degraded by dehydrogenase in the live cells was read, followed by nonlinear regression to determine 50% growth inhibition concentration.
# [6] = Cytotoxicity test (WST-8), NIH 3T3; format: cell-based; conditions: mouse, NIH 3T3 embryonic fibroblast cells; NIN3T3, 24 hours
# Protocol: as §1
# [7] = Cytotoxicity test (WST-8), CHO-K1; format: cell-based; conditions: Chinese hamster, CHO-K1 ovary cells; CHO-K1, 24 hours
# Protocol: as §1
# [8] = tested on: inflammatory cytokines (TNF-α, IL-6); assay: Inflammatory cytokines in LPS-stimulated spleen cells of collagen-induced arthritis mice (ELISA); format: in vivo; conditions: 15 and 60 mg/kg; arthritis mouse spleen cells, LPS 12 hours; FIG. 8
# Protocol: Particularly, the mice having arthritis induced by collagen in Example 10 were used herein. Cells were extracted from the mouse spleen, which were cultured in a 12-well plate and stabilized. Cells were stimulated with LPS for 12 hours and the expressions of inflammatory cytokines (TNF-α, IL-6) were measured by ELISA.
# [9] = tested on: IL-6 and TNF-α; assay: Inflammatory cytokine expression in LPS-treated human mononuclear cells (PBMC), real-time PCR; format: cell-based; conditions: LPS 1 μg/ml, compound 1 μg/ml, 6 hours, FIG. 11
# Protocol: Particularly, PBMC separated from healthy human blood was treated with LPS (1 μg/ml). The cells were treated with the compound of the present invention at the concentration of 1 μg/ml, followed by culture for 6 hours to investigate whether or not the induced inflammatory cytokine secretion was inhibited by the compound. RNA was separated from the cells, from which the transcription levels of IL-6 and TNF-α were quantified by real-time PCR. The results are shown in FIG. 11 (NC: negative control, PC: positive control).
# [10] = tested on: Th17 cells; assay: Differentiation of mouse naïve T cells into Th17 cells; format: cell-based; conditions: Rag2 KO/OVA-TCRtg naïve T cells, 3 days, secreted cytokine protein; compared with berberine; FIG. 12
# Protocol: Particularly, the transgenic mouse (Rag2 KO/OVA-TCRtg) naïve T cells were cultured under the condition of Th17 cell differentiation (treated with IL-6, IL-1β, and TGF-β along with APC cells) for 3 days. Compared with berberine known as a Th17 differentiation inhibitor, the inhibitory effect of the NFAT5 inhibitor on the differentiation of Th17 was measured by quantifying the secreted cytokine protein. Cell survival rate under the same condition was also measured by CCK-8.
# T1 sequence (Q9WV30 whole entry): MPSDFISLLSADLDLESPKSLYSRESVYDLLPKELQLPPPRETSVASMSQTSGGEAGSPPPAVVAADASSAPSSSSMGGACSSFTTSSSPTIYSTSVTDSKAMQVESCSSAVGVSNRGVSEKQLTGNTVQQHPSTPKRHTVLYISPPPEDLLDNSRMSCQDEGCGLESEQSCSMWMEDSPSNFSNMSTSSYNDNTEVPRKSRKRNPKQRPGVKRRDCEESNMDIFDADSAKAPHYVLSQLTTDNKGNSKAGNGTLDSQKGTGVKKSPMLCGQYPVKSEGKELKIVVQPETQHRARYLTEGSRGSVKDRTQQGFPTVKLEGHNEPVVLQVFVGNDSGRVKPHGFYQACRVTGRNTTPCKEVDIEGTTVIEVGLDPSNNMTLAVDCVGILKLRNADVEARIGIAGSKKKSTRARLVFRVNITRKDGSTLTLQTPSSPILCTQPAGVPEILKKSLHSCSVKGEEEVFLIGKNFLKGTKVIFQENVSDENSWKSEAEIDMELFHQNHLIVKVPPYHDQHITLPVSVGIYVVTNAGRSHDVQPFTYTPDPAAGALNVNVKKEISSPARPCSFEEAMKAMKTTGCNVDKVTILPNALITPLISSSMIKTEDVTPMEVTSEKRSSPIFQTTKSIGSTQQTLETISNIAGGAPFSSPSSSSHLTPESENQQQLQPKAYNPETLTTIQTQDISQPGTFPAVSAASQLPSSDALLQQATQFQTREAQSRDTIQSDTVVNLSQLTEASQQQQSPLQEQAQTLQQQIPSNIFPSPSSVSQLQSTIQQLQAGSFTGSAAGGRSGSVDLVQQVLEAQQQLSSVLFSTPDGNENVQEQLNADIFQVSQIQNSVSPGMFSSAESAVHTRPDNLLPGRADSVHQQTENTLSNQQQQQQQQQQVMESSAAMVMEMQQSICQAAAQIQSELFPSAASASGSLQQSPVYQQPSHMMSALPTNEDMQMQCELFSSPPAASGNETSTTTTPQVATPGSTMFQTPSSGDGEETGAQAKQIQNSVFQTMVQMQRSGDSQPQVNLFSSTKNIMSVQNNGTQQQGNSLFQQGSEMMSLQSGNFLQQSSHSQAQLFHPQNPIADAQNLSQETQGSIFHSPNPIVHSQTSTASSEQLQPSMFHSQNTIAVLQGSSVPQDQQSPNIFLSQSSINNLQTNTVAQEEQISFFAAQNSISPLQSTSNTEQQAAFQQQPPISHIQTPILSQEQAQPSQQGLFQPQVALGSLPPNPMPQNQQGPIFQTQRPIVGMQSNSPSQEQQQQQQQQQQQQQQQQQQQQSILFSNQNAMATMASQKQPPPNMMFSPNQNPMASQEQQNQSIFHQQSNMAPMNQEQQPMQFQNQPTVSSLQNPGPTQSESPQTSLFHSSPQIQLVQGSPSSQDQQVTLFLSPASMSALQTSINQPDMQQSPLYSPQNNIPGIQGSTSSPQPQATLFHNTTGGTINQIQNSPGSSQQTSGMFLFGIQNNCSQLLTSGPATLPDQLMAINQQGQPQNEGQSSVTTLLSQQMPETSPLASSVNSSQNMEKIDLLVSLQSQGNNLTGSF
smiles,measurement,setting,value
"COc1ccc2c(Cc3ccccc3F)c3n(c(=O)c2c1OC)CCc1cc2c(cc1-3)OCO2 [Example 1, 13-(2-fluorobenzyl)-9,10-dimethoxy-5H-[1,3]dioxolo[4,5-g]isoquinolino[3,2-a]isoquinoline-8(6H)-one]",inhibition at 1 µM,[1]; 1 μM,91%
same,inhibition at 10 µM,[1]; 10 μM,134%
same,Inhibition rate of NFAT5 transcription (%),[2]; 1 μM,11.2%
same,Inhibition rate of NFAT5 transcription (%),[2]; 10 μM,81.2%
same,inhibiting NFAT5 activity (in words),[2]; Table 3 and FIG. 1,remarkably excellent in inhibiting NFAT5 activity
same,inhibition of NFAT promoter / transcriptional activity (in words),[3],slightly
same,increase of NFAT5 expression caused by LPS (from the phase of transcript),"[4]; 1 μM for 1 hour, LPS 12 hours, real-time PCR",suppressed
same,NFAT5 protein level increased by LPS (cytoplasm/nucleus),"[4]; 1 μM pre-treatment 1 hour, LPS 1 μg/ml 24 hours",reduced
same,GI50 at 24 h,[5],84.2 µM
same,GI50 at 24 h,[6],7.16 µM
same,GI50 at 24 h,[7],12.1 µM
same,expression of IL-6,[8],reduced
same,expression of TNF-α,[8],reduced
same,"expression of cytokines (IL-6, TNF-α transcription levels)",[9],inhibit the expression of cytokines
same,inhibitory effect on the differentiation of Th17,[10],inhibitory effect on the differentiation of Th17 as similar as berberine
